{
  "source": "patent US20240050342A1",
  "about": "“PROLIPID COMPOSITION FOR PERSONALIZED BENEFITS AND METHOD FOR USING THE SAME” (Conopco, Inc., d/b/a UNILEVER, priority 2020, published 2024)",
  "key": {"[1]": {"system": "neonatal keratinocyte model", "test": "Elongation of deuterated d31-Palmitic acid with and without 12-hydroxystearic acid in neonatal keratinocyte model (LC/MS/MS)", "assay_type": "cell-based", "protocol": "In this experiment the elongation of deuterated d31-Palmitic acid (dC16:0) with and without PPAR activator 12-hydroxystearic was investigated in a neonatal keratinocyte model. Keratinocytes were grown in an EpiLife™ medium (with calcium, from Thermo Fisher Scientific) in six well plate formats until confluency. Confluent keratinocytes were differentiated with CaCl2 treatment. The cells in wells deplete of PPAR activator were treated with the substrate: 1 uM of d31-Palmitic acid (dC16:0) every second or third day until harvested on day 7. The remainder of the samples were treated with 1 uM of the aforementioned dC16:0 and 12 hydroxystearic acid at the concentrations shown in the tables. Samples were extracted and analyzed via liquid chromatography/tandem mass-spectrometry (LC/MS/MS) for deuterated d31-Palmitic acid (dC16:0) elongation. Precursor-to-product ion transitions, specific to deuterated elongated fatty acids derived from d31-Palmitic acid, were identified and measured."}, "[2]": {"system": "human skin discards", "test": "Sphingosine/ceramide formation from deuterated palmitic acid in ex vivo human skin model (LC/MS/MS)", "assay_type": "cell-based", "protocol": "In this experiment, a standard topical base composition was charged with 3% by weight deuterated d31palmitic acid and a second base was charged with 3% by weight deuterated d31palmitic acid in combination with 3% by weight 12-hydroxystearic acid. Both compositions were applied to separate human skin discards. Biopsies were taken, placed on collagen and incubated at 37° C. with about 5% carbon dioxide. Samples were harvested after 5 days, extracted, and fractionated to obtain ceramide fractions. Elongation of deuterated d31Palmitic acid (dC16:0) with and without the PPAR activator 12-hydroxystearic acid was investigated in an ex vivo human skin model. The ceramide fraction obtained was hydrolyzed to release deuterated sphingosine and analyzed via liquid chromatography/tandem mass-spectrometry (LC/MS/MS). This technique was used to identify and measure “precursor-to-product” ion transitions specific to deuterated sphingosine, and therefore, to track sphingosine formation from deuterated palmitic acid applied to skin discards. Unexpectedly, the amount of resulting deuterated sphingosine increased in the presence the PPAR activator. The numbers in units (“u”) provided depict the signal abundance of the biomolecules looked and accounted for in a sample as determined by LC/MS/MS. […]"}, "[3]": {"system": "EpiDerm in vitro 3D skin equivalents of keratinocytes", "test": "Elongation of deuterated d23-Lauric acid in EpiDerm 3D skin equivalents (LC/MS/MS)", "assay_type": "cell-based, human", "conditions": "for d23 C12:0 signal: lauric acid prior to elongation", "protocol": "In this experiment, EpiDerm in vitro 3D skin equivalents of keratinocytes (commercially available from Matek) were used as a model system to investigate bioconversions in human skin. The skin equivalents were topically treated with deuterated d23-Lauric acid (dC12:0) in propylene glycol:ethanol (70:30), one time per day for seven days with concentrations in the range of 400 ng/cm^2 to 5000 ng/cm^2. Samples were harvested, extracted and analyzed via liquid chromatography/tandem mass-spectrometry (LC/MS/MS) for deuterated d23-Lauric acid elongation. Precursor-to-product (i.e., elongation) ion transitions, specific to deuterated elongated fatty acids derived from d23 Lauric acid, were identified and measured. The first column depicts the signal for lauric acid provided to the EpiDerm prior to elongation."}, "[4]": {"conditions": "12HSA 3 uM with 1 uM dC16:0, harvested day 7"}, "[5]": {"conditions": "12HSA 10 uM with 1 uM dC16:0, harvested day 7"}, "[6]": {"conditions": "12HSA 30 uM with 1 uM dC16:0, harvested day 7"}, "[7]": {"conditions": "12HSA 100 uM with 1 uM dC16:0, harvested day 7"}, "[8]": {"conditions": "400 ng/cm2, once per day for seven days"}, "[9]": {"conditions": "1000 ng/cm2, once per day for seven days"}, "[10]": {"conditions": "5000 ng/cm2 dC12:0, once per day for seven days"}, "[11]": {"conditions": "1 uM d31-Palmitic acid, No 12 HSA, harvested day 7"}},
  "data": [
    {"smiles": "CCCCCCC(O)CCCCCCCCCCC(=O)O", "note": "(stereo not shown) [12HSA, 12-hydroxystearic acid]", "values": [
      {"measurement": "dC16:0 signal", "setting": "[1]; [4]", "value": 486506, "unit": "u"},
      {"measurement": "dC18:0 signal", "setting": "[1]; [4]", "value": 710249, "unit": "u"},
      {"measurement": "dC20:0 signal", "setting": "[1]; [4]", "value": 11478, "unit": "u"},
      {"measurement": "dC22:0 signal", "setting": "[1]; [4]", "value": 94091, "unit": "u"},
      {"measurement": "dC24:0 signal", "setting": "[1]; [4]", "value": 294398, "unit": "u"},
      {"measurement": "dC26:0 signal", "setting": "[1]; [4]", "value": 60180, "unit": "u"},
      {"measurement": "dC16:0 signal", "setting": "[1]; [5]", "value": 503533, "unit": "u"},
      {"measurement": "dC18:0 signal", "setting": "[1]; [5]", "value": 713499, "unit": "u"},
      {"measurement": "dC20:0 signal", "setting": "[1]; [5]", "value": 13666, "unit": "u"},
      {"measurement": "dC22:0 signal", "setting": "[1]; [5]", "value": 98634, "unit": "u"},
      {"measurement": "dC24:0 signal", "setting": "[1]; [5]", "value": 306176, "unit": "u"},
      {"measurement": "dC26:0 signal", "setting": "[1]; [5]", "value": 62141, "unit": "u"},
      {"measurement": "dC16:0 signal", "setting": "[1]; [6]", "value": 921997, "unit": "u"},
      {"measurement": "dC18:0 signal", "setting": "[1]; [6]", "value": 792317, "unit": "u"},
      {"measurement": "dC20:0 signal", "setting": "[1]; [6]", "value": 18245, "unit": "u"},
      {"measurement": "dC22:0 signal", "setting": "[1]; [6]", "value": 131062, "unit": "u"},
      {"measurement": "dC24:0 signal", "setting": "[1]; [6]", "value": 470314, "unit": "u"},
      {"measurement": "dC26:0 signal", "setting": "[1]; [6]", "value": 109818, "unit": "u"},
      {"measurement": "dC16:0 signal", "setting": "[1]; [7]", "value": 677241, "unit": "u"},
      {"measurement": "dC18:0 signal", "setting": "[1]; [7]", "value": 750585, "unit": "u"},
      {"measurement": "dC20:0 signal", "setting": "[1]; [7]", "value": 75060, "unit": "u"},
      {"measurement": "dC22:0 signal", "setting": "[1]; [7]", "value": 201806, "unit": "u"},
      {"measurement": "dC24:0 signal", "setting": "[1]; [7]", "value": 774622, "unit": "u"},
      {"measurement": "dC26:0 signal", "setting": "[1]; [7]", "value": 219006, "unit": "u"},
      {"measurement": "effect on formation of elongated fatty acids from d31-Palmitic acid", "setting": "[1]; compared to samples deplete of the activator", "value": "boosts and enhances the formation of elongated fatty acids from d31C16:0 to d31C26:0"},
      {"measurement": "amount of resulting deuterated sphingosine in the presence of the PPAR activator", "setting": "[2]; 3% 12-hydroxystearic acid with 3% d31palmitic acid vs d31palmitic acid alone", "value": "increased"}
    ]},
    {"smiles": "[2H]C([2H])([2H])C([2H])([2H])C([2H])([2H])C([2H])([2H])C([2H])([2H])C([2H])([2H])C([2H])([2H])C([2H])([2H])C([2H])([2H])C([2H])([2H])C([2H])([2H])C(=O)O", "note": "[dC12:0, d23-Lauric acid]", "values": [
      {"measurement": "d23 C14:0 signal", "setting": "[3]; [8]", "value": 4670, "unit": "u"},
      {"measurement": "d23 C16:0 signal", "setting": "[3]; [8]", "value": 46204, "unit": "u"},
      {"measurement": "d23 C18:0 signal", "setting": "[3]; [8]", "value": 140851, "unit": "u"},
      {"measurement": "d23 C20 signal", "setting": "[3]; [8]", "value": 20848, "unit": "u"},
      {"measurement": "d23 C22:0 signal", "setting": "[3]; [8]", "value": 45885, "unit": "u"},
      {"measurement": "d23 C24:0 signal", "setting": "[3]; [8]", "value": 68863, "unit": "u"},
      {"measurement": "d23 C12:0 signal", "setting": "[3]; [8]", "value": 24559, "unit": "u"},
      {"measurement": "d23 C14:0 signal", "setting": "[3]; [9]", "value": 7481, "unit": "u"},
      {"measurement": "d23 C16:0 signal", "setting": "[3]; [9]", "value": 338885, "unit": "u"},
      {"measurement": "d23 C18:0 signal", "setting": "[3]; [9]", "value": 467624, "unit": "u"},
      {"measurement": "d23 C20 signal", "setting": "[3]; [9]", "value": 54050, "unit": "u"},
      {"measurement": "d23 C22:0 signal", "setting": "[3]; [9]", "value": 128640, "unit": "u"},
      {"measurement": "d23 C24:0 signal", "setting": "[3]; [9]", "value": 187974, "unit": "u"},
      {"measurement": "d23 C12:0 signal", "setting": "[3]; [9]", "value": 51904, "unit": "u"},
      {"measurement": "d23 C14:0 signal", "setting": "[3]; [10]", "value": 53655, "unit": "u"},
      {"measurement": "d23 C16:0 signal", "setting": "[3]; [10]", "value": 1026969, "unit": "u"},
      {"measurement": "d23 C18:0 signal", "setting": "[3]; [10]", "value": 1355969, "unit": "u"},
      {"measurement": "d23 C20 signal", "setting": "[3]; [10]", "value": 227595, "unit": "u"},
      {"measurement": "d23 C22:0 signal", "setting": "[3]; [10]", "value": 513274, "unit": "u"},
      {"measurement": "d23 C24:0 signal", "setting": "[3]; [10]", "value": 758093, "unit": "u"},
      {"measurement": "d23 C12:0 signal", "setting": "[3]; [10]", "value": 528578, "unit": "u"},
      {"measurement": "bioconversion/elongation of dC12:0 in skin equivalents", "setting": "[3]; enzymes present in the skin equivalents", "value": "convert to dC16:0 via fatty acid synthase enzyme, followed by further elongation of dC16:0 to deuterated Lignoceric acid C24:0"}
    ]},
    {"smiles": "[2H]C([2H])([2H])C([2H])([2H])C([2H])([2H])C([2H])([2H])C([2H])([2H])C([2H])([2H])C([2H])([2H])C([2H])([2H])C([2H])([2H])C([2H])([2H])C([2H])([2H])C([2H])([2H])C([2H])([2H])C([2H])([2H])C([2H])([2H])C(=O)O", "note": "[deuterated palmitic acid, d31-Palmitic acid]", "values": [
      {"measurement": "dC16:0 signal", "setting": "[1]; [11]", "value": 646987, "unit": "u"},
      {"measurement": "dC18:0 signal", "setting": "[1]; [11]", "value": 663577, "unit": "u"},
      {"measurement": "dC20:0 signal", "setting": "[1]; [11]", "value": 11233, "unit": "u"},
      {"measurement": "dC22:0 signal", "setting": "[1]; [11]", "value": 90496, "unit": "u"},
      {"measurement": "dC24:0 signal", "setting": "[1]; [11]", "value": 278426, "unit": "u"},
      {"measurement": "dC26:0 signal", "setting": "[1]; [11]", "value": 60009, "unit": "u"},
      {"measurement": "Deuterated Sphingosine signal abundance", "setting": "[2]; hydrolyzed ceramide fraction, composition with 3% by weight of each ingredient applied to human skin discards, harvested after 5 days, 37° C.", "value": "36,958 u"}
    ]}
  ]
}
